Test results reported in US11130769B2 (Prelude Therapeutics Incorporated, priority 2018, dated 2021).
Like-named read-outs stand apart in the source and are kept apart here.

Columns and labels:
MCL-1 = MCL-1 (Homo sapiens (Human), UniProt Q07820); test: Cell free Mcl-1:Bim affinity assay (fluorescence polarization competition); type: binding; details: 15 nM MCL-1, 5 nM FITC-Bim, 1 hour at room temperature, read-out: BIM_Ki
Outline: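 Fluorescence polarization competition: 10-point 3-fold compound dilutions displaced 5 nM FITC-Bim from 15 nM MCL-1 over 1 h at room temperature. Ki was derived from the fitted IC50 using the Nikolovska-Coleska equation, with percent inhibition normalized to DMSO and positive controls.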

H929 cells = test: Cell viability assay (H929 10 FBS); type: cell-based; details: Homo sapiens, NCI-H929, 24 hours, read-out: H929_10FBS IC50
Outline: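 ATP-based luminescence (CellTiter-Glo or ATPlite 1 Step, 30-60 min at RT) gauged viability of H929 myeloma cells after 24 h compound treatment at 37 °C. Cells plated at 4000 per well in 10% FBS RPMI 1640 supplemented with pyruvate, HEPES and glucose.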

MCL-1, sequence (Q07820 whole entry): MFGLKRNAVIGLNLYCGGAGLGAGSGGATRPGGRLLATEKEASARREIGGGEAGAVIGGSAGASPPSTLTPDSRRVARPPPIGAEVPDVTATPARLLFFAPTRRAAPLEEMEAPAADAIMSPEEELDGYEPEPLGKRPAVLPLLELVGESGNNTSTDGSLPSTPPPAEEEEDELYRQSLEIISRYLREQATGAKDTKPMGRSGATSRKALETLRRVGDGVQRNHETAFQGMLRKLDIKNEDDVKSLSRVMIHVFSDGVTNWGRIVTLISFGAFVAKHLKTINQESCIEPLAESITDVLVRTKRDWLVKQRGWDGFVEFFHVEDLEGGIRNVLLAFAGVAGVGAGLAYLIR

| Structure (SMILES) | Ki (MCL-1; class symbols) | IC50 (H929 cells) | Ki (MCL-1; numeric values) |
| --- | --- | --- | --- |
| COC(=O)N1C/C=C/[C@@H](OC)[C@@H]2CC[C@H]2CN2C[C@@]3(CCCc4cc(Cl)ccc43)COc3ccc(cc32)S(=O)(=O)NC(=O)C2(CCC2)C1 [Example 67, (3R,6R,7R,8E,23S)-6′-Chloro-7-methoxy-11-methoxycarbonyl-13,13-(1,3-propylene)-16,16-dioxo-spiro[21-oxa-16-thia-1,11,15-triazatetracyclo[15.7.2.03,6.020,25]hexacosa[8,17(26),18,20(25)]tetraene-23,1′-tetralin]-14-one] | 1 to 100 nM | > 1000 nM |  |
| CCO[C@@H]1CCN(C(=O)O[C@H]2/C=C/COC3(CCC3)C(=O)NS(=O)(=O)c3ccc4c(c3)N(C[C@@H]3CC[C@H]32)C[C@@]2(CCCc3cc(Cl)ccc32)CO4)C1 [Example 228, [(3R,6R,7S,8E,22S)-6′-Chloro-12,12-(1,3-propylene)-13,15,15-trioxo-spiro[11,20-dioxa-15-thia-1,14-diazatetracyclo[14.7.2.03,6.019,24]pentacosa-8,16,18,24-tetraene-22,1′-tetralin]-7-yl] (3R)-3-ethoxypyrrolidine-1-carboxylate] | < 1 nM | < 500 nM |  |
| CC(=O)NS(=O)(=O)c1ccc2c(c1)N(CC1CCC1)CC1(CCCc3cc(Cl)ccc31)CO2 (stereo not drawn) [Example 1, N-[6′-Chloro-5-(cyclobutylmethyl)spiro[2,4-dihydro-1,5-benzoxazepine-3,1′-tetralin]-7-yl]sulfonylacetamide] |  | > 1000 nM | 45.6 nM |
| O=C(Cc1nccs1)NS(=O)(=O)c1ccc2c(c1)N(CC1CCC1)C[C@@]1(CCCc3cc(Cl)ccc31)CO2 [Example 16, N-[(3S)-6′-Chloro-5-(cyclobutylmethyl)spiro[2,4-dihydro-1,5-benzoxazepine-3,1′-tetralin]-7-yl]sulfonyl-2-thiazol-2-yl-acetamide] |  | > 1000 nM | 9 nM |
| COCCN1CCN(C(=O)O[C@H]2/C=C/COC(C)(C)C(=O)NS(=O)(=O)c3ccc4c(c3)N(C[C@@H]3CC[C@H]32)C[C@@]2(CCCc3cc(Cl)ccc32)CO4)CC1 [Example 46, [(3R,6R,7S,8E,22S)-6′-Chloro-12,12-dimethyl-13,15,15-trioxo-spiro[11,20-dioxa-15-thia-1,14-diazatetracyclo[14.7.2.03,6.019,24]pentacosa-8,16,18,24-tetraene-22,1′-tetralin]-7-yl] 4-(2-methoxyethyl)piperazine-1-carboxylate] | < 1 nM | < 500 nM |  |
| CN(C)C[C@@H]1CCCN1C(=O)O[C@H]1/C=C/COC(C)(C)C(=O)NS(=O)(=O)c2ccc3c(c2)N(C[C@@H]2CC[C@H]21)C[C@@]1(CCCc2cc(Cl)ccc21)CO3 [Example 168, [(3R,6R,7S,8E,22S)-6′-Chloro-12,12-dimethyl-13,15,15-trioxo-spiro[11,20-dioxa-15-thia-1,14-diazatetracyclo[14.7.2.03,6.019,24]pentacosa-8,16,18,24-tetraene-22,1′-tetralin]-7-yl] (2S)-2-[(dimethylamino)methyl]pyrrolidine-1-carboxylate] | < 1 nM | < 500 nM |  |
| CN(C)CCO[C@H]1/C=C/COC(C)(C)C(=O)NS(=O)(=O)c2ccc3c(c2)N(C[C@@H]2CC[C@H]21)C[C@@]1(CCCc2cc(Cl)ccc21)CO3 [Example 65, (3R,6R,7S,8E,22S)-6′-Chloro-7-[2-(dimethylamino)ethoxy]-12,12-dimethyl-15,15-dioxo-spiro[11,20-dioxa-15-thia-1,14-diazatetracyclo[14.7.2.03,6.019,24]pentacosa-8,16,18,24-tetraene-22,1′-tetralin]-13-one] | < 1 nM | < 500 nM |  |
| CC1(C)OC/C=C/[C@H](OCC(=O)NC2CCOCC2)[C@@H]2CC[C@H]2CN2C[C@@]3(CCCc4cc(Cl)ccc43)COc3ccc(cc32)S(=O)(=O)NC1=O [Example 282, 2-[(3R,6R,7S,8E,22S)-6′-Chloro-12,12-dimethyl-13,15,15-trioxo-spiro[11,20-dioxa-15λ6-thia-1,14-diazatetracyclo[14.7.2.03,6.019,24]pentacosa-8,16,18,24-tetraene-22,1′-tetralin]-7-yl]oxy-N-tetrahydropyran-4-yl-acetamide] | < 1 nM | < 500 nM |  |
| CN(C(=O)O[C@H]1/C=C/COC(C)(C)C(=O)NS(=O)(=O)c2ccc3c(c2)N(C[C@@H]2CC[C@H]21)C[C@]1(CO3)OCCc2cc(Cl)ccc21)[C@@H]1CCOC1 [Example 299, [(3R,6R,7S,8E,22R)-6′-Chloro-12,12-dimethyl-13,15,15-trioxo-spiro[11,20-dioxa-15-thia-1,14-diazatetracyclo[14.7.2.03,6.019,24]pentacosa-8,16,18,24-tetraene-22,1′-isochromane]-7-yl] N-methyl-N-[(3R)-tetrahydrofuran-3-yl]carbamate] | < 1 nM | < 1000 nM |  |
| CC1(C)OC/C=C/[C@H](OC(=O)NCCN2CCOCC2)[C@@H]2CC[C@H]2CN2C[C@@]3(CCCc4cc(Cl)ccc43)COc3ccc(cc32)S(=O)(=O)NC1=O [Example 180, [(3R,6R,7S,8E,22S)-6′-Chloro-12,12-dimethyl-13,15,15-trioxo-spiro[11,20-dioxa-15-thia-1,14-diazatetracyclo[14.7.2.03,6.019,24]pentacosa-8,16,18,24-tetraene-22,1′-tetralin]-7-yl] N-(2-morpholinoethyl)carbamate] | < 1 nM | < 500 nM |  |
| CN1C/C=C/[C@H](OC(=O)N2CCN3CCOCC3C2)[C@@H]2CC[C@H]2CN2C[C@@]3(CCCc4cc(Cl)ccc43)COc3ccc(cc32)S(=O)(=O)NC(=O)C1(C)C (stereo in doubt) [Example 208, [(3R,6R,7S,8E,22S)-6′-Chloro-11,12,12-trimethyl-13,15,15-trioxo-spiro[20-oxa-15-thia-1,11,14-triazatetracyclo[14.7.2.03,6.019,24]pentacosa-8,16,18,24-tetraene-22,1′-tetralin]-7-yl] (9aS)-3,4,6,7,9,9a-hexahydro-1H-pyrazino[2,1-c][1,4]oxazine-8-carboxylate] | 1 to 100 nM | < 500 nM |  |

Now from value to molecule:

| Ki (MCL-1; class symbols) | IC50 (H929 cells) | Ki (MCL-1; numeric values) | Structure (SMILES) |
| --- | --- | --- | --- |
| 1 to 100 nM | > 1000 nM |  | CN1C/C=C/[C@H](O)[C@@H]2CC[C@H]2CN2C[C@@]3(CCCc4cc(Cl)ccc43)COc3ccc(cc32)S(=O)(=O)NC(=O)C1(C)C [Example 43, (3R,6R,7S,8E,22S)-6′-Chloro-7-hydroxy-11,12,12-trimethyl-15,15-dioxo-spiro[20-oxa-15-thia-1,11,14-triazatetracyclo[14.7.2.03,6.019,24]pentacosa-8,16,18,24-tetraene-22,1′-tetralin]-13-one] |
| < 1 nM | < 500 nM |  | CCO[C@@H]1CCN(C(=O)O[C@H]2/C=C/COC(C)(C)C(=O)NS(=O)(=O)c3ccc4c(c3)N(C[C@@H]3CC[C@H]32)C[C@@]2(CCCc3cc(Cl)ccc32)CO4)C1 [Example 59, [(3R,6R,7S,8E,22S)-6′-Chloro-12,12-dimethyl-13,15,15-trioxo-spiro[11,20-dioxa-15-thia-1,14-diazatetracyclo[14.7.2.03,6.019,24]pentacosa-8,16,18,24-tetraene-22,1′-tetralin]-7-yl] (3R)-3-ethoxypyrrolidine-1-carboxylate] |
| 1 to 100 nM | > 1000 nM |  | O=C1Cc2ccn(n2)CC(=O)N2CCC(C2)CN2C[C@@]3(CCCc4cc(Cl)ccc43)COc3ccc(cc32)S(=O)(=O)N1 (stereo partly drawn) [Example 297, (23S)-6′-Chloro-16,16-dioxo-spiro[21-oxa-thia-1,6,9,15,27-pentazapentacyclo[15.7.2.13,6.19,12.020,25]octacosa-10,12(27),17,19,25-pentaene-23,1′-tetralin]-7,14-dione] |
| < 1 nM | < 500 nM |  | CC1(C)OC/C=C/[C@H](OC(=O)NCC(F)F)[C@@H]2CC[C@H]2CN2C[C@@]3(CCCc4cc(Cl)ccc43)COc3ccc(cc32)S(=O)(=O)NC1=O [Example 179, [(3R,6R,7S,8E,22S)-6′-Chloro-12,12-dimethyl-13,15,15-trioxo-spiro[11,20-dioxa-15-thia-1,14-diazatetracyclo[14.7.2.03,6.019,24]pentacosa-8,16,18,24-tetraene-22,1′-tetralin]-7-yl] N-(2,2-difluoroethyl)carbamate] |
| < 1 nM | < 1000 nM |  | CO[C@@H]1/C=C/COC2(CC2)C(=O)NS(=O)(=O)c2ccc3c(c2)N(C[C@@H]2CC[C@H]21)C[C@@]1(CCCc2cc(Cl)ccc21)CO3 [Example 29, (3R,6R,7R,8E,22S)-6′-Chloro-7-methoxy-12,12-ethylene-15,15-dioxo-spiro[[11,20]dioxa-15-thia-1,14-diazatetracyclo[14.7.2.03,6.019,24]pentacosa[8,16(25),17,19(24)]tetraene-22,1′-tetralin]-13-one] |
| < 1 nM | > 1000 nM |  | CO[C@@H]1/C=C/C[C@H](C)[C@@H](CO)C(=O)NS(=O)(=O)c2ccc3c(c2)N(C[C@@H]2CC[C@H]21)C[C@@]1(CCCc2cc(Cl)ccc21)CO3 [Example 94, (3R,6R,7R,8E,11S,12S,22S)-6′-Chloro-12-(hydroxymethyl)-7-methoxy-11-methyl-15,15-dioxo-spiro[20-oxa-15-thia-1,14-diazatetracyclo[14.7.2.03,6.019,24]pentacosa-8,16,18,24-tetraene-22,1′-tetralin]-13-one] |
| 1 to 100 nM | < 500 nM |  | CN1C/C=C/[C@H](OCCN2CC(F)C2)[C@@H]2CC[C@H]2CN2C[C@@]3(CCCc4cc(Cl)ccc43)COc3ccc(cc32)S(=O)(=O)NC(=O)C1(C)C [Example 275, (3R,6R,7S,8E,22S)-6′-Chloro-7-[2-(3-fluoroazetidin-1-yl)ethoxy]-11,12,12-trimethyl-15,15-dioxo-spiro[20-oxa-15-thia-1,11,14-triazatetracyclo[14.7.2.03,6.019,24]pentacosa-8,16,18,24-tetraene-22,1′-tetralin]-13-one] |
